Test results reported in paper PMC4844176 (Xenobiotica; the fate of foreign compounds in biological …, 2015).
Values joined by “and” are separate entries in the source; they are usually repeats but may differ in a detail not shown here. Equal entries are not always repeated. Where two headings read alike, the source gives them in different places.

Tests used:
UGT1A4 = target: T1, UGT1A4 (Homo sapiens, UniProt P22310); conditions: pH 7.5; for velocity of AP-G formation: 60 min
T1 sequence (P22310 29-534): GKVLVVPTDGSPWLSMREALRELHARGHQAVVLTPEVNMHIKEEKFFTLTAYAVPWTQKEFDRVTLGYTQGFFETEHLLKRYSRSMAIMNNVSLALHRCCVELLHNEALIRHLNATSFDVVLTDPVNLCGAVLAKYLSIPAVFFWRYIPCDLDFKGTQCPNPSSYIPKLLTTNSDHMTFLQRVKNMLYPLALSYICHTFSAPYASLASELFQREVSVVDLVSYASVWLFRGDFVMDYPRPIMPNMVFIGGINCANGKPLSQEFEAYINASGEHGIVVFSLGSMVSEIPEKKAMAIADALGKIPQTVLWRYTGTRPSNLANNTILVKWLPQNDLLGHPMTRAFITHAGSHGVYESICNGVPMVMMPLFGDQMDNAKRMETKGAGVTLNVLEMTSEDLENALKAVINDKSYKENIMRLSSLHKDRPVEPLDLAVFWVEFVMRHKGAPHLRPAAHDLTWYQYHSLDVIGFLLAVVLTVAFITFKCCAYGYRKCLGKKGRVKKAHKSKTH

UGT1A8 = target: T2, UGT1A8 (Homo sapiens, UniProt Q9HAW9)
T2 sequence (Q9HAW9 26-530): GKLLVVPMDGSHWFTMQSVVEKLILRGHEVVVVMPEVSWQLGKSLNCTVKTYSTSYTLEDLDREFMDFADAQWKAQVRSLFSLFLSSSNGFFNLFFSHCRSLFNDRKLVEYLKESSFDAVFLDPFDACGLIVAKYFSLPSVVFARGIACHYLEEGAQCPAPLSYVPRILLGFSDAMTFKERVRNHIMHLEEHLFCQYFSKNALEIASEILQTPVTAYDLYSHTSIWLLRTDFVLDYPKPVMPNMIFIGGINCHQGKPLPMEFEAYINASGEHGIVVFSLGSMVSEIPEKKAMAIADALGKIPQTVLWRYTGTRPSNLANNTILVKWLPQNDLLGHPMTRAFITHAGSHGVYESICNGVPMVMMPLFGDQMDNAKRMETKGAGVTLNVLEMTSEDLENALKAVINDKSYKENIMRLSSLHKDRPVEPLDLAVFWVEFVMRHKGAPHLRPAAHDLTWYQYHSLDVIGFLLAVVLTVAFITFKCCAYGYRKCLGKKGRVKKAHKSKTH

[1] = test system: human liver microsomes (HLM); format: in vitro ADME; conditions: microsomes from 44 livers, 30 µM aprepitant
other UGTs = test: Inhibition by aprepitant of other UGTs; format: in vitro ADME, human; conditions: 1 µM aprepitant, UGTs other than UGT2B7
UGT2B7 = target: T3, UGT2B7 (Homo sapiens, UniProt P16662); test: biochemical
T3 sequence (P16662 24-529): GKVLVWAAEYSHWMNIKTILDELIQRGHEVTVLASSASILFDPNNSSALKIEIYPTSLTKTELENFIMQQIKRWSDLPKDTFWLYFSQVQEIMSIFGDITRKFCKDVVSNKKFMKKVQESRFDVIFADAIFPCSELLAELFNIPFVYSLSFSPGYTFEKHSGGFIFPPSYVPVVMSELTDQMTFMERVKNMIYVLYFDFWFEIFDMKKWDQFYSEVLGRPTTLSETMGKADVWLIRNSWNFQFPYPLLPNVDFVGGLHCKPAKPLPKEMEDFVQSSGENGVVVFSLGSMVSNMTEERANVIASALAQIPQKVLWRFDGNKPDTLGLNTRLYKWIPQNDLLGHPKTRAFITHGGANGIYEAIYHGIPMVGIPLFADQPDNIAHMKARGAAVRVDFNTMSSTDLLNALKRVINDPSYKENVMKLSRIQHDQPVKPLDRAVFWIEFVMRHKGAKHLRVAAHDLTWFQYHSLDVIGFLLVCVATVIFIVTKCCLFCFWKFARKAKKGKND

UGT1A7 = target: T4, UGT1A7 (Homo sapiens, UniProt Q9HAW7); test: Screening for aprepitant glucuronidation, UGT1A7 Supersomes; format: in vitro ADME; conditions: UGT1A7, 5 and 250 µM aprepitant
T4 sequence (Q9HAW7 26-530): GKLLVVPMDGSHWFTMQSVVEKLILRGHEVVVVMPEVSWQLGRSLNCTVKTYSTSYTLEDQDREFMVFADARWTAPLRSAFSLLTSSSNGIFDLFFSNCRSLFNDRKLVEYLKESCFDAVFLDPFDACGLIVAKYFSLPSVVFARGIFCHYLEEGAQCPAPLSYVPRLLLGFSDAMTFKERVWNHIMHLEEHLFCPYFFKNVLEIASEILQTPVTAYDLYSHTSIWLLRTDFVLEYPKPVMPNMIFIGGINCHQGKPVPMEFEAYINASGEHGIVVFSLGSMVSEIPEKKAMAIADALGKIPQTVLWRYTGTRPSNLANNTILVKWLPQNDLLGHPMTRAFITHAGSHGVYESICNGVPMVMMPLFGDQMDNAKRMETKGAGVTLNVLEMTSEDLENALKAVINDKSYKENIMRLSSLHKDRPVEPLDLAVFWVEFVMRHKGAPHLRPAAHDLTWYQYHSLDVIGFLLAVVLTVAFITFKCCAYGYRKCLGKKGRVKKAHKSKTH

[2] = ref Lasseter et al., 2007, Takahashi et al., 2011; cited from earlier work
UGT2B17 = target: T5, UGT2B17 (Homo sapiens, UniProt O75795); test: Screening for aprepitant glucuronidation, UGT2B17 Supersomes; format: in vitro ADME; conditions: UGT2B17, 5 and 250 µM aprepitant
T5 sequence (O75795 24-530): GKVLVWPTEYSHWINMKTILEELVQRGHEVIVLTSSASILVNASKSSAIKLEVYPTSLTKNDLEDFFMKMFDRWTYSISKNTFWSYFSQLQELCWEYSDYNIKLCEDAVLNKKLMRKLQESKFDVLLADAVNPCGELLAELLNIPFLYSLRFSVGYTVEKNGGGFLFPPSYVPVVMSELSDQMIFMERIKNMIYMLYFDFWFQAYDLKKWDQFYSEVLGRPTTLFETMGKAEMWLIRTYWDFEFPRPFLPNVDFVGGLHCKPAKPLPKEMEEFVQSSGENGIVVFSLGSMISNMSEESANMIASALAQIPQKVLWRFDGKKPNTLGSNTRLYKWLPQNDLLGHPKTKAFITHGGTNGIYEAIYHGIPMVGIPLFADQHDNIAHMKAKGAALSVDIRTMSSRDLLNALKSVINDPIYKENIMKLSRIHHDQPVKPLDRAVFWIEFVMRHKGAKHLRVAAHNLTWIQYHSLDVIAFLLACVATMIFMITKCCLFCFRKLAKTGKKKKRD

velocity of AP-G formation (UGT1A4; 5 µM): 124.6 ± 6.4 fmol/min/mg protein
velocity of AP-G formation (UGT1A4; 250 µM): 2,710 ± 157.2 fmol/min/mg protein
CLint (UGT1A4; recombinant enzyme): 28 µl/min/µg protein
Vmax (UGT1A8; UGT1A8, mean ± SE): 683 ± 69 fmol/min/mg protein
n (Hill coefficient) (UGT1A8; UGT1A8, mean ± SE): 1.2 ± 0.1
velocity of AP-G formation (UGT1A8; human, 60 min, 250 µM, pH 7.5): 391 ± 10.6 fmol/min/mg protein
CLint (UGT1A8; human, recombinant enzyme, pH 7.5): 3.5 µl/min/µg protein
variation of glucuronidation activity between livers [1]: approximately 2 fold
Ki (UGT2B7): ~10 µM and 7.4 µM and 16.3 µM and 6.7 µM
AP-G formation (UGT1A7): not detected
AP-G formation (UGT2B17): not detected
Compound: C[C@@H](O[C@H]1OCCN(Cc2n[nH]c(=O)[nH]2)[C@H]1c1ccc(F)cc1)c1cc(C(F)(F)F)cc(C(F)(F)F)c1 [aprepitant, Aprepitant]
inhibition of other UGTs (other UGTs): < 10%
systemic circulation concentration in patients [2]: approximately 5 µM
